Entries after “also recorded” stand apart in the source; their conditions may differ.
Experiments:
[1] = target: T1, IDO1 expressed in 4T1 cells (Mus musculus, UniProt P28776); assay: IDO1 inhibitory assay in cell lines (kynurenine, IFN-γ induced), 4T1; type: cell-based; settings: 100 μM inhibitor concentration
T1 construct: endogenous in cells; host or cells: 4T1 (IFN-γ induced)
Protocol: (§1) IDO1 cellular activity assay was carried out by standard literature protocols. […] First of all, cells grew in high glucose DMEM medium containing 10% FBS and antibiotics. […] Then, 1 × 10^4 cells were seeded in 96-well plates and cultivated in carbon dioxide incubator at 37 °C containing 5% CO2 for 24 h. On day two, each well in the plates were treated with fresh DMEM medium, which contained L-Trp (20 μg/mL), IFN-γ (10 ng/mL), and different concentrations of inhibitor. The plate was incubated for 48 h further. Then, 140 μL of supernatant from each well was transferred into centrifuge tubes correlatively. An amount of 10 μL of 30% trichloroacetic acid (w/v) was added to each tube aimed to precipitate proteins. Subsequently, sample incubation (65 °C, 30 min) was required to make the N′-formylkynurenine (NFK) change into kynurenine which was the final product. Soon afterwards, the sample was centrifuged at 8000 rpm for 10 min. An amount of 100 μL supernatant from each tube was transferred into a new 96-well plate with an equal amount of 2% pDMAB added. The concentration of kynurenine could be measured because it reacts with pDMAB to form a product with a UV–vis absorption at 492 nm. To estimate cell viability, 1 × 10^4 normal cells named L02 were seeded in 96-well flat bottom plates with a final volume of 200 μL of DMEM complete growth medium. After being incubated for 24 h at 37 °C, the culture was replaced by a fresh complete growth medium (200 μL) and four inhibitors (200 μM) were added individually. Then, 48 h later, the medium was replaced by PBS (180 μL) mixed with CCK8 solution (20 μL) in each well. Cell viability was evaluated by testing the OD450nm. Finally, all data in cell experiments were processed by GraphPad Prism 7.00 to obtain the IDO1 inhibitory percentage of each inhibitor in the cells and the cell viability.

[2] = target: T2, IDO1 expressed in MCF-7 cells (Homo sapiens, UniProt P14902); assay: IDO1 inhibitory assay in cell lines (kynurenine, IFN-γ induced), MCF-7; type: cell-based; settings: MCF7; 100 μM inhibitor concentration
T2 construct: endogenous in cells; host or cells: MCF-7 (IFN-γ induced)
Protocol: as §1

[3] = target: IDO1 expressed in CT26 cells (Mus musculus, UniProt P28776); assay: IDO1 inhibitory assay in cell lines (kynurenine, IFN-γ induced), CT26; type: cell-based; settings: 100 μM inhibitor concentration
Protocol: as §1

IDO1 [4] = target: T3, IDO1 (Homo sapiens, UniProt P14902); assay: Enzyme-based IDO1 inhibitory assay (UV–vis, product at 320 nm); type: biochemical; settings: for IC50: 100 μM L-Trp, mean ± SD, three determinations; for Ki: L-Trp 50, 100, 150 μM, [S]/[V] against [I] plot (Cornish-Bowden); for Type of Inhibition: position of intersections in [S]/[V] against [I] plot
Protocol: The IDO1 inhibitory assay was performed according to standard literature protocols with some modifications. The UV–vis method was used for evaluating the inhibitory activity of inhibitors against IDO1. Specifically, IDO1 (1 μM, 1 mL) was prepared by phosphate buffer (100 mM, pH 6.5) containing catalase (200 μg/mL), methylene blue (10 μM), and ascorbic acid (10 mM, pH 6.5). Concentrations of every inhibitor were varied from 1 to 200 μM, and experimental samples were incubated at 37 °C for 10 min. Then, a certain concentration of L-Trp was added before monitoring the product at 320 nm by UV–vis spectrophotometer immediately.
The inhibition percent of each inhibitor was determined by [1 − (A/B)] × 100%, where A is the enzymatic activity of IDO1 with inhibitor added and B is the absence of the inhibitor. […] The plot was described by the percent inhibition against Log10 concentration of the inhibitor.
Ki values of inhibitors were obtained by intersection of the three fitted lines in the plot, which was the absolute value of the X-axis value of the intersection. The plot was described by [S]/[V] against inhibitor concentration, where [S] and [V] were the substrate concentration and the reaction velocity, respectively. Furthermore, protein-inhibitor binding modes were determined by the position of the intersections in the plot. Data processing was performed by Origin 7.5.

[5] = target: IDO1 expressed in HeLa cells (Homo sapiens, UniProt P14902); assay: IDO1 inhibitory assay in cell lines (kynurenine, IFN-γ induced), HeLa; type: cell-based; settings: 100 μM inhibitor concentration
Protocol: as §1

IDO1 [6] = target: T3, IDO1; assay: Determination of the inhibition types (reversible or irreversible; [V] versus [E] plot); type: biochemical; settings: 100 μM inhibitor, 100 μM L-Trp
Protocol: Based on the results of UV–vis spectra, the determination of inhibitory types was carried out according to the reference. The inhibitor was defined as reversible if the fitted lines were intersected in the plot (Figure 4A).
Different concentrations of IDO1 (1 mL) were prepared with 100 mM phosphate buffer (pH 6.5) containing methylene blue (10 μM), catalase (200 μg/mL), and ascorbic acid (10 mM, pH 6.5). Each sample was incubated at 37 °C for 10 min. An amount of 100 μM L-Trp was added before measuring by UV–vis spectrophotometer at 320 nm. The only difference for the other set of groups was 100 μM inhibitor was added in each sample before incubating. The data were analyzed by Origin 7.5, and plot of reaction rate [V] versus enzyme amount [E] was proposed using linear fit. The determination of inhibitory types was based on the linear trend of the fitted plot.

Chain of IDO1 expressed in CT26 cells (P28776 whole entry): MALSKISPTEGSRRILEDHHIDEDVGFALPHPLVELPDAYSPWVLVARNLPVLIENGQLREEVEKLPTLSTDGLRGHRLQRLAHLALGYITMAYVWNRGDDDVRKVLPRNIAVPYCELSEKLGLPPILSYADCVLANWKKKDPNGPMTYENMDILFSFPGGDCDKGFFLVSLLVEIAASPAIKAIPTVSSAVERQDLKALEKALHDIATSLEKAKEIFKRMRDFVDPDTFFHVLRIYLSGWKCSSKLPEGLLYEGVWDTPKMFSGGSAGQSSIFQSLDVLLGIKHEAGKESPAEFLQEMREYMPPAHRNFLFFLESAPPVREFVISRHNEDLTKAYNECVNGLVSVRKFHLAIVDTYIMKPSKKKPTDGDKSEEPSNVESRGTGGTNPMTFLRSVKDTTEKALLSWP
T1 sequence (P28776 whole entry): as above
T3 sequence (P14902 whole entry): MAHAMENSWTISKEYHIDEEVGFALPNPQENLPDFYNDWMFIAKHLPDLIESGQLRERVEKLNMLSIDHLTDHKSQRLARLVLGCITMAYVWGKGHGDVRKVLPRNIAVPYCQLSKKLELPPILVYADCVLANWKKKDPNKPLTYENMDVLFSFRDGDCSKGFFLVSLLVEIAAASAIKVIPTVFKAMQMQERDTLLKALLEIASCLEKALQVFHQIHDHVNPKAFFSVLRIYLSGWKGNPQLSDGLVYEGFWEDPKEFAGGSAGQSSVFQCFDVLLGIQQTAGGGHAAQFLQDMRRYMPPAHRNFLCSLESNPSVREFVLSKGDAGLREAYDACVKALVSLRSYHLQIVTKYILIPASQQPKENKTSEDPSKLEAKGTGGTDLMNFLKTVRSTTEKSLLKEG
T2 sequence (P14902 whole entry): as above
Chain of IDO1 expressed in HeLa cells (P14902 whole entry): as above

Compound	inhibition at 100 µM [1]	inhibition at 100 µM [2]	inhibition at 100 µM [3]	IC50 (IDO1 [4])	Ki (IDO1 [4])	Type of Inhibition (IDO1 [4])	inhibition at 100 µM [5]	increase of inhibitory activity by substituent modification (IDO1 [4]; IC50, methoxyl group at 6-position versus inhibitors 1 and 2)	IDO1 inhibitory activity (IC50) relative to positive control 4−PI (IDO1 [4]; IC50 ratio versus 4−PI)	Inhibition type (reversible or irreversible) (IDO1 [6])
COC(=O)[C@H]1N[C@@H](c2ccccc2)[C@@]2(C(=O)Nc3ccccc32)[C@@H]1c1ccccc1 [inhibitor 1]	2.6 ± 0.6%	23.7 ± 2%	3.7 ± 0.8%	25.2 ± 3.6 µM	42.3 ± 0.8 µM	Uncompetitive	25.5 ± 1.5%	–	–	–
COC(=O)[C@H]1N[C@@H](c2ccccc2)[C@@]2(C(=O)Nc3cc(C)ccc32)[C@@H]1c1ccccc1 [inhibitor 2]	4.2 ± 1%	22.4 ± 0.4%	4.2 ± 0.5%	29.4 ± 1.3 µM	49.5 ± 6 µM	Uncompetitive	27.1 ± 2.1%	–	–	–
COC(=O)[C@H]1N[C@@H](c2ccccc2)[C@@]2(C(=O)Nc3cc(OC)ccc32)[C@@H]1c1ccccc1 [inhibitor 3]	4.3 ± 0.1%	27.8 ± 0.3%	6.4 ± 0.8%	7.9 ± 1.7 µM	63.6 ± 3.5 µM	Uncompetitive	26.7 ± 0.7%	3 times	~six-fold; also recorded: ~six times	reversible
COC(=O)[C@@H]1N[C@H](c2ccc(Br)cc2)[C@]2(C(=O)Nc3ccccc32)[C@H]1c1ccccc1 [inhibitor 4]	2.8 ± 0.3%	20.7 ± 0.1%	1.7 ± 0.5%	64.6 ± 3.9 µM	101 ± 4.4 µM	Uncompetitive	25.6 ± 1.3%	–	–	–

— paper PMC9104902, “Spiro-Oxindole Skeleton Compounds Are Efficient Inhibitors for Indoleamine 2,3-Dioxygenase 1: An Attractive Target for Tumor Immunotherapy” (International Journal of Molecular Sciences, 2022)
